Measured values from the supplement of paper PMC10307832.

Tests used:
Assay in all cases: relative viability (nuclei count vs DMSO), 5 days (fraction); higher = more cells survive
Ispinesib + AZD7762 = compound: Cc1ccc(C(=O)N(CCCN)[C@@H](c2nc3cc(Cl)ccc3c(=O)n2Cc2ccccc2)C(C)C)cc1 [Ispinesib] + NC(=O)Nc1cc(-c2cccc(F)c2)sc1C(=O)N[C@H]1CCCNC1 [AZD7762] (partner 0.2 µM)
Method in brief: (§1)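 Lung cancer cell lines in 1536-well plates got either a single drug or a fixed anchor-drug dose together with five library-drug doses (not always all listed) in √10 steps, by pin tool, on the day after seeding. Nuclei were counted after 5 days, and relative viability is the treated-to-vehicle ratio of nuclei counts. Values are medians of duplicate plates.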

Linsitinib + Lapatinib = compound: C[C@]1(O)C[C@@H](c2nc(-c3ccc4ccc(-c5ccccc5)nc4c3)c3c(N)nccn32)C1 [Linsitinib] + CS(=O)(=O)CCNCc1ccc(-c2ccc3ncnc(Nc4ccc(OCc5cccc(F)c5)c(Cl)c4)c3c2)o1 [Lapatinib] (partner 2 µM)
Method in brief: as §1

Ispinesib + Crizotinib = compound: Cc1ccc(C(=O)N(CCCN)[C@@H](c2nc3cc(Cl)ccc3c(=O)n2Cc2ccccc2)C(C)C)cc1 [Ispinesib] + C[C@@H](Oc1cc(-c2cnn(C3CCNCC3)c2)cnc1N)c1c(Cl)ccc(F)c1Cl [Crizotinib] (partner 1 µM)
Method in brief: as §1

Ispinesib + Navitoclax = compound: Cc1ccc(C(=O)N(CCCN)[C@@H](c2nc3cc(Cl)ccc3c(=O)n2Cc2ccccc2)C(C)C)cc1 [Ispinesib] + CC1(C)CCC(c2ccc(Cl)cc2)=C(CN2CCN(c3ccc(C(=O)NS(=O)(=O)c4ccc(N[C@H](CCN5CCOCC5)CSc5ccccc5)c(S(=O)(=O)C(F)(F)F)c4)cc3)CC2)C1 [Navitoclax] (partner 0.5 µM)
Method in brief: as §1

Row | Cell Line | relative viability (Ispinesib + AZD7762; first compound 0.001 µM) | relative viability (Ispinesib + AZD7762; first compound 0.003162 µM) | relative viability (Ispinesib + AZD7762; first compound 0.01 µM) | relative viability (Ispinesib + AZD7762; first compound 0.03162 µM) | relative viability (Ispinesib + AZD7762; first compound 0.1 µM) | relative viability (Linsitinib + Lapatinib; first compound 0.01 µM) | relative viability (Linsitinib + Lapatinib; first compound 0.03162 µM) | relative viability (Linsitinib + Lapatinib; first compound 0.1 µM) | relative viability (Linsitinib + Lapatinib; first compound 0.3162 µM) | relative viability (Linsitinib + Lapatinib; first compound 1 µM) | relative viability (Ispinesib + Crizotinib; first compound 0.001 µM) | relative viability (Ispinesib + Crizotinib; first compound 0.003162 µM) | relative viability (Ispinesib + Crizotinib; first compound 0.01 µM) | relative viability (Ispinesib + Crizotinib; first compound 0.1 µM) | relative viability (Ispinesib + Navitoclax; first compound 0.001 µM) | relative viability (Ispinesib + Navitoclax; first compound 0.003162 µM) | relative viability (Ispinesib + Navitoclax; first compound 0.01 µM) | relative viability (Ispinesib + Navitoclax; first compound 0.1 µM) | relative viability (Ispinesib + Crizotinib; first compound 0.03162 µM) | relative viability (Ispinesib + Navitoclax; first compound 0.03162 µM)
1 | HCC-78 | 0.691 | 0.592 | 0.532 | 0.526 | 0.422 | 0.364 | 0.651 | 0.514 | 0.676 | 0.542 | 0.348 | 0.341 | 0.438 | 0.272 | 0.706 | 0.851 | 0.85 | 0.657 |  | 
2 | HCC-366 | 0.267 | 0.29 | 0.204 | 0.346 | 0.0475 | 1.14 | 0.8 | 1.07 | 0.326 | 0.874 | 0.6 | 0.563 | 1.22 | 0.0887 | 1.16 | 1.02 | 1.31 | 0.27 | 0.848 | 1.2
3 | IA-LM |  |  |  |  |  | 0.962 | 1.02 | 0.854 | 0.61 | 0.437 | 0.897 | 0.912 | 0.7 | 0.199 | 0.969 | 0.751 | 0.44 | 0.0187 | 0.131 | 0.0088
4 | LCLC-103H | 0.849 | 0.836 | 0.887 | 0.484 | 0.434 |  |  |  |  |  | 1.08 | 1.2 | 1.08 | 0.929 |  |  |  |  | 0.999 | 
5 | NCI-H358 | 0.654 | 0.462 | 0.514 | 0.433 | 0.253 | 0.423 | 0.388 | 0.388 | 0.366 | 0.303 | 0.617 | 0.515 | 0.665 | 0.424 |  |  |  |  | 0.409 | 
6 | NCI-H441 | 1.41 | 1.22 | 1.44 | 0.64 | 0.309 |  |  |  |  |  | 0.834 | 0.697 | 0.485 | 0.222 | 0.764 | 0.477 | 0.587 | 0.218 | 0.217 | 0.238
7 | NCI-H520 |  |  |  |  |  | 0.934 | 0.462 | 0.979 |  | 0.929 | 0.783 | 0.631 | 0.781 | 0.438 | 1.02 | 1.14 | 1.04 | 0.286 | 0.346 | 0.274
8 | NCI-H522 | 0.782 | 1.01 | 0.913 | 0.845 | 0.316 |  |  |  |  |  |  |  |  |  |  |  |  |  |  | 
9 | NCI-H650 | 1.15 | 1.21 | 1.09 | 0.634 | 0.456 | 0.701 | 0.926 | 0.871 |  | 0.646 | 0.526 | 0.669 | 0.826 | 0.404 |  |  |  |  | 0.595 | 
10 | NCI-H661 |  |  |  |  |  | 0.566 | 0.501 | 0.514 | 0.691 | 0.424 | 1.02 |  | 1.04 | 0.376 |  |  |  |  | 0.736 | 
11 | NCI-H1299 |  |  |  |  |  | 0.989 | 0.89 | 0.996 | 0.952 | 1.01 | 1.01 | 0.977 | 1.02 | 0.469 | 1.02 | 1.08 | 1.08 | 0.52 | 0.805 | 1.01
12 | NCI-H1395 | 0.411 | 0.403 | 0.356 | 0.31 | 0.355 | 1.08 | 0.803 | 1.12 | 0.83 | 0.906 |  |  |  |  | 1.32 | 1.1 | 1.16 | 0.326 |  | 0.553
13 | NCI-H1563 |  |  |  |  |  | 0.949 | 1.05 | 1.03 | 0.591 | 0.856 | 0.826 | 0.776 | 0.782 | 0.781 |  |  |  |  | 0.949 | 
14 | NCI-H1648 | 0.653 | 0.774 | 0.682 | 0.616 | 0.273 |  |  |  |  |  |  |  |  |  |  |  |  |  |  | 
15 | NCI-H1650 |  |  |  |  |  | 0.8 | 0.84 | 0.777 | 0.164 | 0.481 | 0.91 | 1.05 | 0.769 | 0.325 | 1.33 | 1.32 | 1.23 | 0.25 | 0.223 | 0.258
16 | NCI-H1793 | 0.476 | 0.494 | 0.352 | 0.412 | 0.295 | 0.786 | 0.822 | 0.751 | 0.43 | 0.478 |  |  |  |  | 0.464 | 0.729 | 0.382 | 0.405 |  | 0.394
17 | NCI-H2009 |  |  |  |  |  | 0.945 | 0.878 | 0.997 | 0.148 | 0.963 | 1.04 | 1.01 | 0.999 | 0.288 | 1.28 | 1.23 | 1.32 | 0.374 | 0.589 | 0.678
18 | NCI-H2023 |  |  |  |  |  | 0.821 | 0.411 | 0.895 | 0.0717 | 0.408 | 0.616 | 0.657 | 0.598 | 0.13 | 1.07 | 1.09 | 1.1 | 0.21 | 0.457 | 0.837
19 | NCI-H2228 |  |  |  |  |  | 0.978 | 0.839 | 1.08 | 0.663 | 0.8 | 0.511 | 0.4 | 0.539 | 0.207 | 0.896 | 0.896 | 1.37 | 0.187 | 0.374 | 0.878
20 | NCI-H2342 | 0.609 | 0.432 | 0.528 | 0.411 | 0.373 |  |  |  |  |  |  |  |  |  |  |  |  |  |  | 
21 | SK-LU-1 |  |  |  |  |  | 0.889 | 0.902 | 0.987 |  | 0.815 | 1.05 | 0.932 | 0.968 | 0.439 | 0.955 | 0.794 | 1.23 | 0.164 | 0.776 | 0.415
22 | SK-MES-1 |  |  |  |  |  | 0.434 | 0.456 | 0.467 | 0.462 | 0.435 | 1.07 | 1 | 1.11 | 0.284 | 1.47 | 1.2 | 1.14 | 0.227 | 0.751 | 0.922
23 | SW 900 | 0.635 | 0.492 | 0.648 | 0.565 | 0.259 |  |  |  |  |  |  |  |  |  |  |  |  |  |  | 
24 | SW 1573 |  |  |  |  |  | 1.18 | 1.3 | 1.05 | 0.939 | 0.933 | 0.948 | 0.66 | 1.03 | 0.296 | 1.22 | 1 | 1.21 | 0.17 | 0.724 | 0.915
